Values quoted from earlier work as cited in US6884429B2, “Medical devices incorporating deuterated rapamycin for controlled delivery thereof” (Isotechnika International Inc., priority 1997, dated 2005).

Conditions: plasma and low-, and neuteral -pH buffers at 37° C.

## CO[C@H]1C[C@@H]2CC[C@@H](C)[C@@](O)(O2)C(=O)C(=O)N2CCCC[C@H]2C(=O)O[C@H]([C@H](C)C[C@@H]2CC[C@@H](O)[C@H](OC)C2)CC(=O)[C@H](C)/C=C(\C)[C@@H](O)[C@@H](OC)C(=O)[C@H](C)C[C@H](C)/C=C/C=C/C=C/1C [Rapamycin]
  half-life of degradation in solution: < 10 h
